Data: ChEMBL document CHEMBL1133349, “Novel phenylpiperazine derivatives as dual cytokine regulators with TNF-alpha suppressing and IL-10 augmenting activity” (Bioorg Med Chem Lett, 2000)

Experiments:
[1] = target: T1, Adrenergic receptor alpha-1 (Rattus norvegicus, UniProt P15823+P23944+P43140); assay: Binding affinity towards Alpha-1 adrenergic receptor; assay type: protein assay
T1 sequence (P15823 whole entry): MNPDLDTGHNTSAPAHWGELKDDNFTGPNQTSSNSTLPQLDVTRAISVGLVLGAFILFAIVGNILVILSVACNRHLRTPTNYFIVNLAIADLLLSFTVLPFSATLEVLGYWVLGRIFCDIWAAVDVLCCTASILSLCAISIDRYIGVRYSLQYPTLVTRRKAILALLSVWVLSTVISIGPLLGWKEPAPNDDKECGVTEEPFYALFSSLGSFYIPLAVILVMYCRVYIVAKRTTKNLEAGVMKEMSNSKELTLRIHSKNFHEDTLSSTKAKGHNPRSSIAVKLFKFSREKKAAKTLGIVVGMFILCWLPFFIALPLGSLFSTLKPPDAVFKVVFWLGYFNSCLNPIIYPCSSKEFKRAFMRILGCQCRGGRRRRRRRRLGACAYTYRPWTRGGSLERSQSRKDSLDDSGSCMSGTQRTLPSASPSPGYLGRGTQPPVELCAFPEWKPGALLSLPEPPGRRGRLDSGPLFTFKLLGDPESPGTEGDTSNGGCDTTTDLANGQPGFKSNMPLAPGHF
T1 sequence (P23944 whole entry): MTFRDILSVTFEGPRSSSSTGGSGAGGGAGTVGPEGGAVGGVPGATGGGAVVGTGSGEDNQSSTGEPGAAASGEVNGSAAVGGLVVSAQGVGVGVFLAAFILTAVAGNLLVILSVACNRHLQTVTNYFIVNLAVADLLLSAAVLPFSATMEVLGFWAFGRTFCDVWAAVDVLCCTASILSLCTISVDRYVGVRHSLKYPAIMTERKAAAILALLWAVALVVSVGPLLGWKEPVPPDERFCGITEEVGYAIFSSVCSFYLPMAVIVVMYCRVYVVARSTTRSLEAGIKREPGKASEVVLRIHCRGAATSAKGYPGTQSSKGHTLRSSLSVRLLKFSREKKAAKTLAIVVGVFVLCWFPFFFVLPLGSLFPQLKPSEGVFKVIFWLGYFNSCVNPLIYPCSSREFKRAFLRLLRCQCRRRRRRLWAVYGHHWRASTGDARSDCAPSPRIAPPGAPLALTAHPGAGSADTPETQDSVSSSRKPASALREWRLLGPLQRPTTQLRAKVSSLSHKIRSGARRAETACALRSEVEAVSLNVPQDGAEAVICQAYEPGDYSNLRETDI
T1 sequence (P43140 whole entry): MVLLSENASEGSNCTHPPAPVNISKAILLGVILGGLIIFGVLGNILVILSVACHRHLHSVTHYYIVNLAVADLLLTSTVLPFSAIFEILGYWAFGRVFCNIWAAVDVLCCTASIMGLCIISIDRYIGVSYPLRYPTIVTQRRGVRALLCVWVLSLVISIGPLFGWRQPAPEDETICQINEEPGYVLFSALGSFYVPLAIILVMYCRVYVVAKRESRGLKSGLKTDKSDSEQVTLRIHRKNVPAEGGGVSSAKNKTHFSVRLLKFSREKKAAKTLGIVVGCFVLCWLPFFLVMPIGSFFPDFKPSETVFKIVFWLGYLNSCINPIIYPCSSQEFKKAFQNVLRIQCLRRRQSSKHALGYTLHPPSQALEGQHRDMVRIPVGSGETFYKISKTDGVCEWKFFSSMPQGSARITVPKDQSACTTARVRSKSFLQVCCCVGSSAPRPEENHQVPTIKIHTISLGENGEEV

[2] = target: T2, 5-hydroxytryptamine receptor 1A (Rattus norvegicus, UniProt P19327); assay: Binding affinity towards 5-hydroxytryptamine 1A receptor
T2 sequence (P19327 whole entry): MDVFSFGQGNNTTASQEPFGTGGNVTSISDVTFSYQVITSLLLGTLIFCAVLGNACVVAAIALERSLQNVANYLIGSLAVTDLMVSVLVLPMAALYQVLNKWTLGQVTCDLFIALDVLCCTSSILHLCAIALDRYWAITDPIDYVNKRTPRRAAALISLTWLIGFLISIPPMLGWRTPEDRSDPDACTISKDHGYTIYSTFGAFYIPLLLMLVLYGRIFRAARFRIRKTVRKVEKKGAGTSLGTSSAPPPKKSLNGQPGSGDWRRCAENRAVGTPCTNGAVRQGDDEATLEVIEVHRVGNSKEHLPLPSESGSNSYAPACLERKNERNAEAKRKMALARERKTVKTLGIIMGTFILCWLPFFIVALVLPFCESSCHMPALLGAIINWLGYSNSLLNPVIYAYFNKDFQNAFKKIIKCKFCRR

Mus musculus [3] = assay: Ability to inhibit TNF-alpha in LPS-stimulated mice after oral administration by ELISA assay; assay type: functional; design: concentration or dose not given beside the values
Mus musculus [4] = assay: Ability to augment IL-10 in LPS-stimulated mice after oral administration by ELISA assay; assay type: functional; design: concentration or dose not given beside the values
D(2) dopamine receptor = D(2) dopamine receptor (Bos taurus, UniProt P20288); assay: Binding affinity towards Dopamine receptor D2
[5] = target: Serotonin 2 (5-HT2) receptor (Homo sapiens, UniProt P41595+P28223+P28335); assay: Binding affinity towards 5-hydroxytryptamine 2 receptor; assay type: protein assay
Mus musculus [6] = organism: Mus musculus; assay: Dose that prevented shock death in mice; assay type: functional
Mus musculus [7] = assay: Ability of compound to prevent shock death in mice expressed as no of mice that survived out of 10 at a dose of 10 mg/kg; assay type: functional
[8] = Oral bioavailability at a dose of 30 mg/kg in rats; assay type: ADME, organism-based; conditions: rat, in vivo

Sequence of D(2) dopamine receptor (P20288 whole entry): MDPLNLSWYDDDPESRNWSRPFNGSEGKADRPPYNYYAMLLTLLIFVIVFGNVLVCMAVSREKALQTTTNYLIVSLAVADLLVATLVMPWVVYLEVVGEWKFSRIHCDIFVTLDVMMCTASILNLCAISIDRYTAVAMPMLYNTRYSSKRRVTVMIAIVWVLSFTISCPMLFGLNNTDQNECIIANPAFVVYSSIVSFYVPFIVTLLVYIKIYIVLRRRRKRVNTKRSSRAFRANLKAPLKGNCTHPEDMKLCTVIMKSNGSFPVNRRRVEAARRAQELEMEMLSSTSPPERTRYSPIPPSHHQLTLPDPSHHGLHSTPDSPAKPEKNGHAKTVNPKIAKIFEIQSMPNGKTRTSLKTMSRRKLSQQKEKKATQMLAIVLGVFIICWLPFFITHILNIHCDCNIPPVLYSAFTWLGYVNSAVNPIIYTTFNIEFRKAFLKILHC

SMILES	Ki [1] [nM]	Ki [2] [nM]	Ki (D(2) dopamine receptor) [nM]	Ki [5] [nM]	Inhibition (Mus musculus [3]) [%]	IL-10 level (% of control) (Mus musculus [4]) [%]	Dose (Mus musculus [6]) [mg/kg]	Survival (Mus musculus [7])	bioavailability [8] [%]
NC(=O)NCc1ccc(CCCCN2CCN(c3ccccc3)CC2)cc1					85	253			
CC(=O)Nc1ccc(CCCCN2CCN(c3ccccc3)CC2)cc1					88	585			
CC(=O)NCCc1ccc(CCCCN2CCN(c3ccccc3)CC2)cc1					76	292			
CC(=O)NCc1ccc(CN2CCN(c3ccc(F)cc3F)CC2)cc1	> 1000		> 1000	> 1000	91	2293	10	8	95.5
c1ccc(CCCCN2CCN(c3ccccc3)CC2)cc1					77	337			
N=C(N)NCc1ccc(CCCCN2CCN(c3ccccc3)CC2)cc1					39	124			
CC(=O)NCCCc1ccc(CCCCN2CCN(c3ccccc3)CC2)cc1					68	146			
N/C(S)=N/Cc1ccc(CCCCN2CCN(c3ccccc3)CC2)cc1					69	129			

Now from value to molecule, other results behind:

Ki [1] [nM]	Ki [2] [nM]	Ki (D(2) dopamine receptor) [nM]	Ki [5] [nM]	SMILES	Inhibition (Mus musculus [3]) [%]	IL-10 level (% of control) (Mus musculus [4]) [%]	Dose (Mus musculus [6]) [mg/kg]	Survival (Mus musculus [7])	bioavailability [8] [%]
> 1000	> 1000	> 1000	> 1000	CC(=O)NCc1ccc(CN2CCN(c3ccc(Cl)cc3)CC2)cc1	65	361			
4.6	6	49	48	CC(=O)NCc1ccc(CCCCN2CCN(c3ccccc3)CC2)cc1	94	1337			
> 1000	> 1000	> 1000	> 1000	CC(=O)NCc1ccc(CN2CCN(c3ccc(F)cc3)CC2)cc1	87	1494			
7.9	3.8	5.5	37	Nc1nc(-c2ccc(CCCCN3CCN(c4ccccc4)CC3)cc2)cs1	87	382			
69	2.9	170	130	CC(=O)NCc1ccc(CCN2CCN(c3ccccc3)CC2)cc1	96	2784			
> 1000	> 1000	> 1000	> 1000	COc1ccc(N2CCN(Cc3ccc(CNC(C)=O)cc3)CC2)cc1	74	449			
> 1000	140	> 1000	> 1000	CC(=O)NCc1ccc(CN2CCN(c3ccccc3)CC2)cc1	89	376			
6.4	33	340	160	CC(=O)NCc1ccc(CCCN2CCN(c3ccccc3)CC2)cc1	97	1805			
